Laboratory results from patent US4714705A, “4-nitrogen substituted isoquinolinol compounds having cardiotonic, phosphodiesterase fraction III inhibiting properties and/or renal vasodilating properties” (Ortho Pharmaceutical Corporation, priority 1986, dated 1987).
Like-named read-outs stand apart in the source and are kept apart here.

Experiments:
[1] = tested on: adult mongrel dogs; assay: Acute in vivo cardiotonic activity in anesthetized dogs; parameters: species or system dog (adult mongrel); settings: Canis lupus familiaris, 0.875 mg/kg intravenous, relative to controls
Description: The acute in vivo cardiotonic activity of compounds prepared according to the present invention was determined according to a modification of the procedure described by Alousi et al., Circ. Res., 45, 666 (1979).
In particular, adult mongrel dogs were anesthetized with sodium pentobarbital and were artificially respired. Arterial pressure was monitored via a femoral artery, and the pulse pressure was used to trigger a cardiotachometer for heart rate. Left ventricular pressure was determined with a Millar catheter, and dP/dt (the change in ventricular pressure with time) was derived. Cardiac output was determined by measuring ascending aortic blood flow with an electromagnetic flow probe, and myocardial contractile force was measured with a Walton Brodie strain gauge sutured to the right ventricle. Lead II EKG was also recorded.
A standard dose (10 μ/kg/min) of dopamine was administered to assess myocardial responsiveness.
Compounds of the invention were administered by intravenous infusion or bolus oral administration, and the effects on cardiovascular parameters were determined.
Dose related effects on the test compound on blood pressure (BP), heart rate (HR), maximum change in left ventricular pressure with time (dP/dt max), % change in cardiac force (CF) and the increase in mean arterial blood pressure relative to controls (MABP) were compared to pretreatment control values, expressed as a % change and rated for activity. Statistical evaluations were made using the appropriate parametric test against controls.

[2] = tested on: adult mongrel dogs; assay: Renal vasodilating activity in anesthetized dogs; type: in vivo, dog (adult mongrel); settings: Canis lupus familiaris, 1.2 mg/kg intravenous, relative to controls
Description: Goldberg et al, J. Pharmacol. Exp. Ther., 163, 188 (1968), performed an investigation of the structural requirements for dopamine-like renal vasodilation of phenethylamines and apmorphine. The following procedure is a variation of the assay described in that report.
Adult mongrel dogs were anesthetized and surgically prepared for electromagnetic measurement of renal artery blood flow. A carotid artery was cannulated for measuring arterial blood pressure, and drugs were administered intravenously or intraarterially (via the renal artery). Heart rate was monitored with a cardiotachometer. Renal vascular resistance was calculated as the ratio of mean arterial blood pressure/renal artery blood flow. Dopamine was infused intravenously at […] for ten minutes (at an infusion rate of about 1 ml/min) to determine responsiveness of each dog to renal dopamine receptor stimulation. Cumulative dose-response data were obtained by infusing a compound of this invention at progressively increasing (usually three-fold) infusion rates, esch dose being infused for five minutes. The maximum percent increase from pre-drug control in renal artery blood flow (or a decrease in renal vascular resistance) was determined for each infusion dose.
RBF values are percent increase in renal blood flow. RVR values are percent increase in renal vascular resistance. MABP and HR are increases in mean arterial blood pressure and heart rate, respectively, relative to controls.

[3] = read-out: HR, percent change in heart rate
[4] = read-out: MABP, mean arterial blood pressure

How did the change in vivo at 0.875 mg/kg ([1]; read-out: CF, percent change in cardiac force) turn out when COc1cc2c(C)nc(O)c(N)c2cc1OC [Compound BBQ, 4-Amino-3-hydroxy-6,7-dimethoxy-1-methylisoquinoline] was run?
Its change in vivo at 0.875 mg/kg is 99%.

And the change in vivo at 0.875 mg/kg [1, 3]?
Its change in vivo at 0.875 mg/kg is 7%.

And the change in vivo at 0.875 mg/kg [1, 4]?
Its change in vivo at 0.875 mg/kg is -5%.

And the change in vivo at 0.875 mg/kg ([1]; read-out: dP/dt, maximum change left ventricular pressure with time)?
Its change in vivo at 0.875 mg/kg is 106%.

And the change in vivo at 1.2 mg/kg [2, 3]?
The change in vivo at 1.2 mg/kg was 4%.

And the change in vivo at 1.2 mg/kg [2, 4]?
Its change in vivo at 1.2 mg/kg is 6%.

And the change in vivo at 1.2 mg/kg ([2]; read-out: RBF, renal blood flow)?
Its change in vivo at 1.2 mg/kg is 22%.

And the change in vivo at 1.2 mg/kg ([2]; read-out: RVR, renal vascular resistance)?
Its change in vivo at 1.2 mg/kg is -12%.
